Assay results from ChEMBL document CHEMBL1154408, “Molecular epidemiology of imipenem-resistant Acinetobacter haemolyticus and Acinetobacter baumannii isolates carrying plasmid-mediated OXA-40 from a Portuguese hospital” (2007).
In brackets after ≈: the same amount, converted by molar mass.

What was measured:
[1] = tested on: Acinetobacter haemolyticus; assay: Antibacterial activity against Acinetobacter haemolyticus expressing carbapenemase-encoding blaOXA-40 gene by Etest method; assay type: functional
Acinetobacter baumannii [2] = assay: Antibacterial activity against Acinetobacter baumannii C clone by Etest method; assay type: functional
Acinetobacter baumannii [3] = assay: Antibacterial activity against Acinetobacter baumannii B clone by Etest method; assay type: functional
Acinetobacter baumannii [4] = assay: Antibacterial activity against Acinetobacter baumannii A clone expressing carbapenemase-encoding blaOXA-40 gene by Etest method; assay type: functional
Acinetobacter baumannii [5] = assay: Antibacterial activity against Acinetobacter baumannii A clone expressing carbapenemase-encoding blaOXA-40 gene by agar dilution method; assay type: functional, organism-based
Acinetobacter baumannii [6] = assay: Antibacterial activity against Acinetobacter baumannii B clone by agar dilution method; assay type: functional, organism-based
Acinetobacter baumannii [7] = assay: Antibacterial activity against Acinetobacter baumannii C clone by agar dilution method; assay type: functional, organism-based
[8] = tested on: Acinetobacter haemolyticus; assay: Antibacterial activity against Acinetobacter haemolyticus expressing carbapenemase-encoding blaOXA-40 gene by agar dilution method; assay type: functional, organism-based

In the case of CO/N=C(\C(=O)N[C@@H]1C(=O)N2C(C(=O)[O-])=C(C[N+]3(C)CCCC3)CS[C@H]12)c1csc(N)n1, the MIC [1] is reported as 4 µg/mL (≈ 8.32 µM).

For CC1(C)S[C@@H]2[C@H](NC(=O)[C@H](N)c3ccc(O)cc3)C(=O)N2[C@H]1C(=O)O [AMOXICILLIN], the MIC (Acinetobacter baumannii [2]) was 128 µg/mL (≈ 350 µM), the MIC (Acinetobacter baumannii [3]) was > 64 µg/mL and the MIC [1] was ≥ 256 µg/mL. The MIC (Acinetobacter baumannii [4]) was ≥ 256 µg/mL.

C[C@H]1[C@H](NC(=O)/C(=N\OC(C)(C)C(=O)O)c2csc(N)n2)C(=O)N1S(=O)(=O)O [AZTREONAM] gave an MIC [1] of 4 µg/mL (≈ 9.19 µM).

CO[C@@]1(NC(=O)Cc2cccs2)C(=O)N2C(C(=O)O)=C(COC(N)=O)CS[C@@H]21 [CEFOXITIN] was tested, and the MIC (Acinetobacter baumannii [2]) was ≥ 256 µg/mL, the MIC (Acinetobacter baumannii [3]) was ≥ 256 µg/mL and the MIC [1] was 32 µg/mL (≈ 74.9 µM). For the same compound, the MIC (Acinetobacter baumannii [4]) was ≥ 256 µg/mL.

In the case of CC(C)(O/N=C(\C(=O)N[C@@H]1C(=O)N2C(C(=O)[O-])=C(C[n+]3ccccc3)CS[C@H]12)c1csc(N)n1)C(=O)O [CEFTAZIDIME], the MIC (Acinetobacter baumannii [2]) is reported as 4 µg/mL (≈ 7.32 µM), the MIC (Acinetobacter baumannii [3]) is reported as 4 µg/mL (≈ 7.32 µM) and the MIC [1] is reported as 4 µg/mL (≈ 7.32 µM). The MIC (Acinetobacter baumannii [4]) was 256 µg/mL (≈ 468 µM).

For C[C@@H](O)[C@H]1C(=O)N2C(C(=O)O)=C(SCCNC=N)C[C@H]12 [IMIPENEM ANHYDROUS], the MIC (Acinetobacter baumannii [2]) was 32 µg/mL (≈ 107 µM), the MIC (Acinetobacter baumannii [3]) was ≥ 32 µg/mL and the MIC [1] was ≥ 32 µg/mL. The MIC (Acinetobacter baumannii [4]) was ≥ 32 µg/mL.

With C[C@@H](O)[C@H]1C(=O)N2C(C(=O)O)=C(S[C@@H]3CN[C@H](C(=O)N(C)C)C3)[C@H](C)[C@H]12 [MEROPENEM] the MIC (Acinetobacter baumannii [2]) was 4 µg/mL (≈ 10.4 µM), the MIC (Acinetobacter baumannii [3]) was 2 µg/mL (≈ 5.22 µM) and the MIC [1] was ≥ 32 µg/mL. The MIC (Acinetobacter baumannii [4]) was ≥ 32 µg/mL.

For CCN1CCN(C(=O)N[C@@H](C(=O)N[C@@H]2C(=O)N3[C@@H]2SC(C)(C)[C@@H]3C(=O)O)c2ccccc2)C(=O)C1=O [PIPERACILLIN], the MIC (Acinetobacter baumannii [2]) was 64 µg/mL (≈ 124 µM), the MIC (Acinetobacter baumannii [3]) was ≥ 256 µg/mL and the MIC [1] was ≥ 256 µg/mL. For the same compound, the MIC (Acinetobacter baumannii [4]) was ≥ 256 µg/mL.

With CC1(C)S[C@@H]2[C@H](NC(=O)[C@H](C(=O)O)c3ccsc3)C(=O)N2[C@H]1C(=O)O [TICARCILLIN] the MIC (Acinetobacter baumannii [2]) was ≥ 256 µg/mL, the MIC (Acinetobacter baumannii [3]) was ≥ 256 µg/mL and the MIC [1] was ≥ 256 µg/mL. For the same compound, the MIC (Acinetobacter baumannii [4]) was ≥ 256 µg/mL.

In the case of COLISTIN, the MIC (Acinetobacter baumannii [5]) is reported as > 16 µg/mL, the MIC (Acinetobacter baumannii [6]) is reported as > 16 µg/mL and the MIC (Acinetobacter baumannii [7]) is reported as 2 µg/mL. The MIC [8] was 4 µg/mL.
